Earlier results on one molecule are cited in patent publication US20090099252A1, “NOVEL L[…] AS THERAPEUTIC AGENTS” (priority 2007, published 2009).

The data set deals with multi-drug resistant cell line SKVLB-1. The conditions noted are these: background statement.

Structures are written as SMILES.

In the case of `C=C1C[C@H](C)C[C@@H]2CC=C[C@@H](C/C=C\C(=O)O[C@H]([C@@H](O)/C=C/[C@@H]3CC(C)=CCO3)C[C@@H]3O[C@H]3[C@@H](O)C1)O2` [Laulimalide, laulimalide], the IC50 is 1.2 µM.

By IC50 is commonly meant the point on the concentration scale where inhibition reaches its midpoint.
